Experimental data reported in patent publication US8765447B2, “Fungal strain Beauveria sp. MTCC 5184 and a process for the preparation of enzymes therefrom” (Council of Scientific and Industrial Research, priority 2010, dated 2014).

How the values were obtained:
[1] = system: purified protease of Beauveria sp MTCC 5184; test: Stability of purified protease in organic solvents at 50° C.; assay type: biochemical; settings: 25% (v/v) solvent
Excerpt: Following organic solvents were used: acetone, 1-butanol, benzene, chloroform, dimethylsulphoxide, ethanol, hexane, isopropanol and methanol. […] Samples were removed at different time intervals and residual activity was estimated.

[2] = system: protease of Beauveria sp MTCC 5184; test: Effect of metal ions on protease activity; assay type: biochemical; settings: for Residual Activity (%): 28° C., 30 min; for inhibition: 1 mM
Method: The protease activity has been expressed in terms of tyrosine equivalents. The reaction mixture contained an aliquot of suitably diluted enzyme solution and 10 mg Hammerstein casein in 0.1 M sodium carbonate buffer pH 9.0 in a total volume of 2 ml. After incubation at 50° C. for 10 min, the reaction was terminated by the addition of 3 ml of 5% trichloroacetic acid (acidified with concentrated hydrochloric acid). The precipitate formed was filtered through Whatman No. 1 filter paper after standing for 30 min at room temperature. The absorbance of trichloroacetic acid soluble fraction was measured at 280 nm. Micrograms of tyrosine produced was calculated from a pre-calibrated graph of absorbance at 280 nm against tyrosine concentration and the units are expressed as […] of tyrosine released per minute under assay conditions.
This example illustrates the effect of metal ions on protease activity of Beauveria sp MTCC 5184.

Compound	Residual Activity (%) ([1]; 0 h, pH 7)	Residual Activity (%) ([1]; 1 h, pH 7)	Residual Activity (%) ([1]; 2 h, pH 7)	Residual Activity (%) ([2]; 1 mM chloride salt)	Residual Activity (%) ([2]; 10 mM chloride salt)	also measured
1-butanol	100.00	82.07	46.38			
CC(C)=O [Acetone, acetone]	100.00	99.07	70.45			Residual Activity (%) ([1]; 2 h, pH 7, listed as acetone): around 70%
c1ccccc1 [Benzene, benzene]	100.00	61.85	40.66			
[Ca+2].[Cl-].[Cl-] [Ca^+2]				92.99	81.75	activation of protease activity ([2]; 1 mM and 10 mM): no activation
[Cd+2] [Cd^+2]				96.99	63.50	inhibition [2]: 3%
ClC(Cl)Cl [Chloroform, chloroform]	100.00	77.14	38.55			
[Cl-].[Cl-].[Co+2] [Co^+2]				103.86	112.36	inhibitory effect on the protease ([2]; 1 mM and 10 mM): no inhibitory effect
[Cl][Cu][Cl] [Cu^+2]				109.42	100.02	inhibitory effect on the protease ([2]; 1 mM and 10 mM): no inhibitory effect
CCO [Ethanol, ethanol]	100.00	98.50	45.21			
[Cl][Fe]([Cl])[Cl] [Fe^+3]				81.67	82.66	
CCCCCC [Hexane, hexane]	100.00	76.18	29.43			
[Hg+2] [Hg^+2]				90.38	63.16	inhibition [2]: 10%
CC(C)O [Isopropanol, isopropanol]	100.00	71.26	46.16			
[Cl-].[K+] [K^+1]				91.71	87.63	
[Cl][Mn][Cl] [Mn^+2]				101.51	73.98	
[Cl-].[Na+] [Na^+1]				100.94	99.01	
